Experiments:
[1] = test system: Cyfip^85.1/+ flies; experiment: competition for food assay (total number of social events) in Cyfip haploinsufficient flies; format: in vivo, Drosophila; settings: for number of social events: 1 mM in the food, 1 or 2 days; for social behavior deficit (social events): Cyfip^85.1/+ flies fed 5 days, GABA 50 μM, DABA 100 μM, VPA 1 mM
Method: (§1) Experiments were performed with socially experienced, 3-7 days-old male flies. Groups of eight males from the same genotype were anesthetized 24 h prior to the assay and placed in vials with food. On the day of the assay, the males were transferred without anesthesia to an empty vial and were deprived of food for 90 minutes, after which they were exposed to a food droplet and given 2 minutes to acclimate to this disturbance. The flies were then observed simultaneously for an additional 2 minutes, and the total number of social events was scored. Monitored social events were i.e. approaches, lunges, tussles, wing threat and the initiation of courtship. Of note, one interaction involving two or more flies was counted as one social event in total (Zwarts (2011), PNAS 108, 17070-17075. The behavioral assays were conducted in a behavioral chamber (25° C., 60-70% humidity) between 8 a.m. and 11 a.m. Statistics were calculated using a one-way fixed effect ANOVA model, and Kruskal Wallis test in combination with Dunn's multiple comparison test.
(§2) Example 8. GABA augmentation fully normalizes the behavioral abnormalities of Cyfip^85.1/+ flies. GABA levels were augmented in Cyfip^85.1/+ flies in three distinct ways: flies were fed either GABA, DL-2,4-diaminobutyric acid (DABA) which is a GABA-transaminase inhibitor and/or a GABA reuptake inhibitor or the anticonvulsant valproic acid (VPA) which induces GABA release (Chateauvieux (2010), Journal of biomedicine & biotechnology 2010; Coghlan (2012), Neurosci Biobehav Rev 36, 2044-2055; Reynolds (2007), Current medicinal chemistry 14, 2799-2812). All compounds were purchased from Sigma-Aldrich and were used as described before (Kanellopoulos (2012), J Neurosci. 32(38):13111-24; Zwarts (2011), PNAS 108, 17070-17075). In brief, the drugs were dissolved as per the manufacturer's instructions and used at the following concentrations: GABA at 50 μM, DABA 100 μM, Valproic acid (VPA) at 1 mM and Diazepam at 50 μM. Compounds in solution were mixed with Formula 4-24® Instant Drosophila Medium (blue food) in water. Approximately 50-60 adult flies were placed in plastic vials containing 500 μl of each solution on top of an agar matrix and allowed to feed ad libitum before behaviour analysis. Vehicle treatment consisted of solvent added to blue food alone.
Example 16. Drug screening to identify compounds that ameliorate social behavior deficits in flies with Cyfip haploinsufficiency. Control (w1118) or CYFIP (Cyfip^85.1/+) flies were treated, i.e. fed, with various compounds from the Prestwick Chemical Library® as described in Examples 8 and 15. All compounds were used at a concentration of 50 μM. The total number of social interactions was analyzed in a competition for food assay at various time-points (1, 2 or 5 days) of treatment with the compound or vehicle controls as described in Example 2.

[2] = test system: wild type flies; experiment: competition for food assay (total number of social events) in wild type (control) flies; format: in vivo, Drosophila
Method: as §1, §2

[3] = test system: flies with GABAergic-specific or pan-neuronal Cyfip abrogation; experiment: competition for food assay (social interactions) in flies with Cyfip abrogation (UAS-Cyfip-IR); format: in vivo, Drosophila; settings: for social interactions: flies with GABAergic-specific Cyfip abrogation, GABA, DABA or VPA in food
From the text: To control Cyfip expression, the tissue specific GAL4/UAS system was employed (Brand and Perrimon, 1993). […] Specifically, the UAS-Cyfip-RNAi transgene (UAS-Cyfip-IR) was used to abrogate Cyfip expression as described in Galy et al., 2011. To generate GAL4/UAS-Cyfip-IR flies, GAL4/GAL4 females were crossed en masse to UAS-Cyfip-IR/UAS-Cyfip-IR males. The GAL4 drivers are described in Kanellopoulos (2012), J Neurosci. 32(38):13111-24. GAL4 and UAS lines have been isogenized for 6 generations with the w1118 background before crossing. GAL4/GAL4 and UAS-Cyfip-IR/UAS-Cyfip-IR females were also crossed with w^1118 males to generate GAL4/+ and UAS-Cyfip-IR/+ progeny respectively that served as controls which should not produce the RNAi construct.
Tissue-specific GAL4 expression was achieved using the tissue-specific GAL4 promoters as follows: pan-neuronal (Elav), in cholinergic (Cha-Gla4), and GABAergic (Gad-Gal4). To avoid neurodevelopmental problems and possible lethality, the ElavGal4, was combined with the temporal TubGal80^ts system (McGuire et al., 2003; McGuire et al., 2004). At 18° C., TubGal80^ts is expressed and binds GAL4, prohibiting its binding to the UAS (i.e., no transcription of UAS-Cyfip-IR). In contrast, at 29-30° C. TubGal80^ts is degraded and will release GAL4 which in turn will bind the UAS thus activating transcription of UAS-Cyfip-IR. […] All flies/progeny for promoter-Gal4;TubGal80^ts and their controls were cultured at 18° C. and 2-days after eclosion were placed at 29-30° C. allowing UAS-Cyfip-IR transcription.
as §1
Example 8. GABA augmentation fully normalizes the behavioral abnormalities of Cyfip^85.1/+ flies. […]

[4] = test system: GABA release; settings: literature statement (Amoroso 1990); cited from earlier work
[5] = test system: mitochondrial membrane potential; settings: literature statement; cited from earlier work
[6] = test system: GABA; experiment: GABA levels by ELISA after fractionation of fly brains; format: in vivo, Drosophila; settings: wild type flies; oligomycin 500 μM in the food
Method: Finally, GABA levels were measured by ELISA (GABA ELISA Enzyme immunoassay (IBL, ID59301) following a fractionation to enrich for mitochondria or synaptic vesicles (Depner (2014), Nat Protoc 9, 2796-2808). In brief, total brain lysates, isolated mitochondria and vesicles were used for GABA derivatization. The samples were incubated with a polyclonal antibody against GABA-derivative, together with assay reagent containing the GABA-derivative (tracer). The concentration of antibody-bound tracer is inverse proportional to the GABA concentration in the sample. Peroxidase conjugate was added detect the tracer and tetramethylbenzidine (TMB) served as a peroxidase substrate. The absorbance was measured in a microplate photometer at 450 nm.
(§3) Since Aralar needs a proton for import of its substrate (i.e. GABA) into mitochondria, the equilibrium distribution of the transport substrates is set by the pH gradient across the mitochondrial membrane, which in turn is a function of fuel availability, oxidative phosphorylation and activity of the TCA cycle.

[7] = test system: mitochondrial membrane potential; experiment: mitochondrial membrane potential by TMRE staining of fly brains; format: in vivo, Drosophila; settings: wild type flies; oligomycin 500 μM in the food
Method: Briefly, for the TMRE (Enzo) and Rhodamine 123 (Sigma-Aldrich) stainings, brains were dissected in HL3 solution (mM): 110 NaCl, 5 KCl, 10 NaHCO3, 5 Hepes, 30 sucrose, 5 trehalose, and 10 MgCl2, pH 7.2. Dissected brains were stained with 10 nM TMRE or Rhodamine123 dye for 5 minutes at room temperature. Brains were quickly washed with HL3 solution, mounted on glass slides and imaged immediately with confocal microscope Leica SP8 using the same settings for all the samples.
as §3

[8] = test system: Cyfip^85.1/+ flies; experiment: Drosophila locomotor activity (DAM system); format: in vivo; settings: 10 μM rotenone for 4 days
Method: The Drosophila Activity Monitoring (DAM) system from Trikinetics Inc. (Walthman, MA) was used to record the locomotor activity of flies. Male flies (1-week old), anesthetised on ice, were individually loaded into the locomotor activity-monitoring tubes, thin 5 mm diameter polycarbonate tubes containing 5% sucrose and 2% agar food and incubated for at least 4 days under 12:12 LD (light-dark) conditions at 25° C. and 50-60% humidity. Light was turned on at 7:30 am and turned off at 7:30 pm. The DAM system software counts the number of times the single fly walks through an infrared beam aimed at the middle of the tube. Data were recorded as the number of crossings (transitions) per bin of 5-30 minutes. To allow the flies to recover from anaesthesia and to get acclimatized to the new environment data from the first day was excluded from the analysis. Two independent experiments were performed and at least 40 flies for each genotype were analysed. Statistical analysis was conducted using GraphPad Prism 6.0 software. Data were evaluated by one-way analysis of variance (ANOVA) with Sidak's post hoc test and by non-parametric Kruskal-Wallis's test with Dunn's correction.

4-formyl-5-hydroxy-6-methylpyridin-3 yl) methyl dihydrogen phosphate [pyridoxal 5′-phosphate hydrate]
number of social events ([1]; Cyfip^85.1/+ flies): rescues the deficits in social behavior
number of social events ([1]; Cyfip^85.1/+ flies, listed as PLP): increased the number of social events to the level observed for normal wild type flies
number of social events ([2]; wild type flies, 1 mM in the food, 2 days): reduced the number of social events

NCCC(N)C(=O)O (racemic) [DABA, DL-2,4-diaminobutyric acid]
social behavior deficit (social events) [1]: ameliorated the social behavior deficit
social interactions [3]: restored the social interactions

CC(=O)c1ccc(S(=O)(=O)NC(=O)NC2CCCCC2)cc1 [Acetohexamide, 4-Acetyl-N-[(cyclohexylamino)carbonyl]benzenesulfonamide]
GABA release [4]: indirectly increase GABA release
mitochondrial membrane potential [5]: decrease the mitochondrial membrane potential

O=C1CCc2ccc(OCCCCN3CCN(c4cccc(Cl)c4Cl)CC3)cc2N1 [Aripiprazole, 7-[4-[4-(2,3-dichlorophenyl)piperazin-1-yl]butoxy]-3,4-dihydro-1H-quinolin-2-one]
mitochondrial membrane potential [5]: decreases the mitochondrial membrane potential

CCCNC(=O)NS(=O)(=O)c1ccc(Cl)cc1 [Chlorpropamide, (1-[p-Chlorobenzenesulfony1]-3-propylurea)]
GABA release [4]: indirectly increase GABA release
mitochondrial membrane potential [5]: decrease the mitochondrial membrane potential

NCCCC(=O)O [GABA, gamma-Aminobutyric acid]
social behavior deficit (social events) [1]: ameliorated the social behavior deficit
duration of the effect post treatment (competition for food) ([1]; Cyfip^85.1/+ flies treated 5 days with GABA, tested post treatment): 2 days
behavioral deficits (social interactions) ([3]; adult pan-neuronal Cyfip abrogation, GABA feeding 5 days): rescued behavioral deficits
social interactions [3]: restored the social interactions
social interaction ([2]; adult wild-type flies, high GABA diet, 5 days): decreased social interaction

Cc1ccccc1C(C(=O)NC1CCCC1)N(C(=O)Cn1cnc2ccccc21)c1cccc(F)c1 (stereo not drawn) [ML309, 2-(N-[2-(benzimidazol-1-yl)acetyl]-3-fluoroanilino)-N-cyclopentyl-2-(2-methylphenyl)acetamide]
abnormal social feeding behavior (social events, competition for food) ([1]; Cyfip^85.1/+ flies, ML309 with the food at 50 µM, 1 or 3 days): ameliorated the abnormal social feeding behavior

COc1ccc(CN2CCNCC2)c(OC)c1OC.Cl.Cl [Trimetazidine dihydrochloride, 1-[(2,3,4-trimethoxyphenyl)methyl]piperazine dihydrochloride]
mitochondrial membrane potential [5]: balances the mitochondrial membrane potential

CCCC(CCC)C(=O)O [VPA, valproic acid]
social behavior deficit (social events) [1]: ameliorated the social behavior deficit
social interactions [3]: restored the social interactions

CC[C@H]1/C=C/C=C/C[C@@H](C)[C@H](O)[C@@](C)(O)C(=O)[C@@H](C)[C@H](O)[C@@H](C)C(=O)[C@@H](C)[C@H](O)[C@@H](C)/C=C/C(=O)O[C@@H]2[C@H](C)[C@H](CC1)O[C@]1(CC[C@H](C)[C@H](C[C@@H](C)O)O1)[C@H]2C [oligomycin]
level of available GABA in the cytosol (ELISA) [6]: decreased
competition for food ([2]; wild type flies, oligomycin 500 μM in the food, 1 day): decreased
mitochondrial membrane potential (TMRE staining) [7]: increasing mitochondrial membrane potential

C=C(C)[C@H]1Cc2c(ccc3c2O[C@@H]2COc4cc(OC)c(OC)cc4[C@@H]2C3=O)O1 [rotenone]
reversibility of the effect of treatment on social behavior ([1]; Cyfip^85.1/+ flies treated 4 days with rotenone, tested for 5 days post-treatment): reversible
social deficits (competition for food) ([1]; Cyfip^85.1/+ flies, rotenone 1-10 μM in the food, 4 days): ameliorate social deficits
hyperactivity (locomotion over 24 hours) [8]: did not restore the hyperactivity
hyperactivity (locomotion over 24 hours) ([8]; listed as Rotenone): does not rescue hyperactivity
behavior of wild type flies (competition for food) ([2]; wild type flies, rotenone 1-10 μM in the food, 4 days): no effect
